Values quoted from earlier work in patent US9381163B2, “Floating capsules encapsulating particles loaded with one or more drugs” (NANYANG TECHNOLOGICAL UNIVERSITY, priority 2012, dated 2016).

For metoprolol tartrate salt, the “log P” value is given as 1.6.
